Laboratory results as given in patent US20230346884A1, “Molecular Targets for Modulation of Dissociative and Associative States” (The Board of Trustees of the Leland Stanford Junior …, priority 2020, published 2023).

Tests used:
[1] = tested on: mice; experiment: Resident-intruder social interaction assay; format: in vivo, mouse
Description: Social Interaction Assay: Resident-intruder social interaction was recorded for two minutes. Interactions were defined as close physical proximity behaviors, including sniffing, touching, and following. […] Illumination began 30 seconds before the same-sex intruder mouse was introduced.

[2] = tested on: retrosplenial cortex (RSP) neurons; experiment: Two-photon imaging of RSP; format: in vivo, mouse
Description: Mice were anesthetized with isoflurane and the skull above retrosplenial cortex was removed and replaced with a 7 mm circular glass coverslip. For layer 1 experiments, ThylGcaMP6s mice were used. For layer 2/3 experiments, Cux2-CreER;Ai148 mice were used (tamoxifen dissolved in corn oil was injected intraperitoneally at 0.1 mg/g at least 2 weeks prior to imaging). For layer 5 experiments, Rbp4-Cre mice were injected locally in retrosplenial with 800 nL AAVdj-Ef1a-DIO-GCaMP6f (titer 5E12) at stereotactic coordinates (−3AP, 0.5 ML, −0.6DV). Mice were given >=1 week to recover before imaging. Awake, head-fixed imaging was performed on a standard two photon microscope (NeuroLabWare, Los Angeles, CA). A 16×0.8 NA Nikon objective was immersed in clear ultrasound gel for imaging (Aquasonic, Parker Laboratories); frame rate of 30 Hz. Although we observed oscillations in RSP with 50 mg/kg, we were concerned that 50 mg/kg may be too low a dose to sensitively detect a potentially weaker signal in visual cortex or layer 2/3, and so we used 80 mg/kg in these experiments.
Two-photon tiff stack videos were registered to the average image using the TurboReg ImageJ plug-in using rigid body transformations. […] Contaminating neuropil signal was estimated from an annulus surrounding each soma mask and removed using the function F(t)=Fsoma(t)−0.3*Fneuropil(t), where Fsoma(t) is the somatic DF/F and Fneuropil(t) is the DF/F from an annulus 4 pixels wide surrounding each soma mask. The resulting traces were detrended and z-scored. The full frame fluorescence (used for quantifying layer 1 neuropil oscillations) was computed by summing all of the pixels in each frame on each time point, and then computing DF/F the same way, with no neuropil subtraction step.
Each trace (corresponding to either a fiber photometry signal, a cellular two-photon signal, a widefield regional centroid, a widefield pixel, an sEEG trace, or a smoothed spike rate Neuropixels trace) was z-scored, and the power spectral density (PSD) was then estimated using Welch's method (pwelch( ) in Matlab), with a window size of 10*fs (15*fs for human sEEG) where fs is the sampling rate of the signal. The average band power within a specified band (i.e. 1-3 Hz) was then computed by integrating the PSD estimate (bandpower in Matlab). For displaying the traces of individual cells, traces were each zscored by subtracting the mean value of the trace (across the whole recorded time window) and dividing by the standard deviation of the trace. Unless otherwise indicated, the PSD was computed across the time window from minutes 10 to 11 post-injection.

[3] = tested on: mouse; conditions: cited from earlier work
[4] = tested on: mice; experiment: Open field test; format: in vivo, mouse; conditions: 5 min; vs saline; doses of b234
From the text: Open Field Test: Mice were placed in an evenly illuminated 50 cm×50 cm open field test box. Mouse position was captured using a webcam and Viewer software (Biobserve).

[5] = tested on: retrosplenial cortex (RSP); experiment: Widefield (pan-cortical) imaging of cortical activity in GCaMP6s mice
Description: (2 mg/kg), lidocaine (topical), LSD ((+)-Lysergic acid diethylamide (+)-tartrate (2:1), 0.3 mg/kg), and diazepam (2 mg/kg). […] For anti-depressant effects, human doses are typically 0.3-1 mg/kg, and in mouse 3-10 mg/kg.
As described^8, mice were anesthetized with isoflurane, the scalp was removed, the skull cleaned and dried, and a custom head-plate was cemented to contacts over the cerebellum and in front of the olfactory bulb. The skull was then covered in a thin layer of cyanoacrylate glue (Apollo 2000, Cyberbond), clear dental acrylic (Ortho-Jet, Lang Dental), and clear nail polish (Electron Microscopy Services). […] (0.1 mg/kg) was injected subcutaneously for pain management. […] Imaging was performed on a custom-built fluorescence microscope designed for high light collection efficiency and large field of view. […] Alternating 410 nm and 488 nm illumination for non-Ca^2+ dependent artifact removal was controlled using a microcontroller (Arduino) slaved to the frame output trigger of the camera.
Analysis was performed using custom MATLAB (MathWorks) scripts. Widefield imaging videos were registered to a 2D top-projection atlas generated from the annotated Allen Brain Atlas volume, version CCFv2, in MATLAB (MathWorks), using an affine transformation computed from four manually selected control points. Each video was DF/F normalized, using the median for each pixel over the entire time series as F. The 410 nm channel was then temporally smoothed using a moving average (width=400 ms). The smoothed 410 nm DF/F signal for each pixel was regressed onto the 488 nm DF/F signal for the corresponding pixel, and the regression coefficients were used to scale the 410 nm channel to the 488 nm channel. This scaled 410 nm DF/F signal was then subtracted from the 488 nm DF/F signal to produce a normalized signal for each pixel. For quantification, activity traces were extracted from points centered in five cortical regions (visual, somatosensory, parietal, motor, retrosplenial) on the left hemisphere of the brain. The video data was Gaussian smoothed spatially (radius=2 pixels). Similarly, for fiber photometry recordings, the 410 nm signal was regressed onto the 488 nm signal, the 410 nm signal was scaled by the regression coefficients, and then subtracted from the 488 nm signal.

[6] = tested on: deep RSP neurons; experiment: 32-channel two-shank silicon probe recording in deep RSP; format: in vivo, mouse; conditions: 50 mg/kg ketamine
Description: Mice were anesthetized with isoflurane, a small craniotomy (˜2 mm diameter) was performed above retrosplenial cortex, and a custom head-plate implanted. The dura was gently removed, and then covered with Kwik-Cast Sealant (World Precision Instruments). A skull screw was implanted and secured with cement in the right frontal skull bone. Mice were given 1-2 hours to recover. […] The deepest tip of the electrode was 800-1000 μm from the brain surface for all recordings.
Extracellular electrophysiological data were recorded using 32 channel acute silicon probes (ASSY-37 P-1, Cambridge Neurotech) acquired at 30 kHz. Following common average referencing, well-isolated single units were identified using KiloSort and Phy. Data were analyzed using custom Matlab scripts. Instantaneous firing rate was computed using 1 ms bins. We used a Hidden Markov Model with two states to label ON and OFF states. ON states were considered to represent bursts, and OFF states were inter-burst intervals. We fit the emission and transition parameters of the model using the Baum-Welch algorithm (Matlab hmmtrain with a convergence threshold of 1 e-6 and initial guesses of transition matrix: [0.95, 0.05; 0.05, 0.95] and emission: [0.5, 0.5; […]]), and then estimated the state assignment at each time point using the Viterbi algorithm (Matlab hmmviterbi). Various initial guesses were tested, and they yielded the same or similar model fit. For population analyses, a bin size of 2 was used. In FIG. 10, we are looking at the number of spikes in each burst, which can vary depending on the neuron being recorded, so we included every burst for every neuron. To quantify the consistency of the sequential onset of activation across bursts, we ranked each unit by its onset time for each burst. We then ordered the units according to their median rank across bursts. For each burst, we fit a linear model between the ranking in that burst and the median rank. The distribution of correlation coefficients was then plotted across bursts for each mouse and treatment condition.

[7] = tested on: mice; experiment: Tail suspension test; format: in vivo, mouse
Description: Tail Suspension Test: Mouse activity was recorded using a 60 Hz web camera. Struggling activity was quantified for minutes 2-10. […] Illumination began 30 seconds before tails were secured with tape and suspended from the beam. Mice were excluded if they climbed on their own tails.

[8] = both channel-knockouts (HCN1, GRIN1), ketamine

CNC1(c2ccccc2Cl)CCCCC1=O (stereo not drawn) [ketamine]
Resident-intruder social interactions vs. wild-type [1, 8]: modestly-recovered
Resident-intruder interactions ([1]; ketamine >=25 mg/kg): suppressed
Oscillation / population synchrony in layer 2/3 RSP neurons ([2]; Cux2-CreER mice, ketamine): neither oscillating neurons nor population synchrony were observed
Oscillation / population synchrony in layer 5 RSP neurons ([2]; Rbp4-Cre mice, ketamine): exhibited synchronous activity
Hedge's g effect-size, mean 1-3 Hz power before/after ketamine, layer 2/3 RSP cells (FIG. 1I) ([2]; n=5 mice): −0.46
Hedge's g effect-size, mean 1-3 Hz power before/after ketamine, layer 5 RSP cells (FIG. 1I) ([2]; n=5 mice): 3.16
Oscillation in superficial neuropil, RSP vs neighboring visual cortex ([2]; two-photon, cranial window, 80 mg/kg): observed the oscillation in RSP but not neighboring visual cortex
Doses for anti-depressant effects [3]: 3 to 10 mg/kg
Open-field locomotion velocity [4]: decreased velocity
Time over which ketamine-induced oscillation decayed ([5]; Supplementary Note 2): ~15 min
Time over which ketamine-induced oscillation emerged ([5]; Supplementary Note 2): 2 min
Ketamine-induced 1-3 Hz movements ([5]; ketamine 50 mg/kg i.p.): no ketamine-induced 1-3 Hz movements were observed
Time for rhythm to emerge ([5]; ketamine 50 mg/kg i.p.): ≤ 120 s
Time for rhythm to return to baseline ([5]; ketamine 50 mg/kg i.p.): ~45 min
Magnitude of rhythm on repeated days ([5]; ketamine, five consecutive days): exhibited similar magnitude across five consecutive days
RSP activity-correlations with other dorsal-cortical regions ([5]; subanesthetic ketamine): reduced RSP activity-correlations with all other dorsal-cortical regions
Spread of the ketamine-rhythm ([5]; to other layers or nearby cortical regions): did not spread beyond layer 5 neurons in retrosplenial cortex
Cortical activity pattern: 1-3 Hz oscillation localized to retrosplenial cortex (RSP) ([5]; widefield imaging, i.p., ketamine 50 mg/kg subanesthetic dose, other drugs at doses of b234): a 1-3 Hz oscillation emerged in retrosplenial cortex (RSP), but not in any other cortical region
Duration of silent states between bursts [6]: ~250 ms
Duration of synchronous bursts of deep RSP neurons [6]: ~250 ms
Participation of units in burst events [6]: nearly all identified units participated in every burst event
Spikes per burst of individual units [6]: 5-10 spikes/burst
Tail suspension-escape behavior vs. wild-type [7, 8]: modestly-recovered tail suspension-escape behavior
Tail-suspension escape responses ([7]; ketamine >=25 mg/kg): suppressed tail-suspension escape responses
